US11535630B2, “Apelin receptor (APJ) agonists and uses thereof” (Research Triangle Institute, priority 2015, dated 2022)

target: T1, apelin receptor (APJ) (Homo sapiens, UniProt P35414); experiment: In vitro apelin agonist activity (methods of Giddings et al., Apelin-13 as positive control); assay type: cell-based; details: EC50 (nM) Ave, in vitro apelin agonist activity, methods of Giddings et al., Apelin-13 as positive control
T1 sequence (P35414 1-380): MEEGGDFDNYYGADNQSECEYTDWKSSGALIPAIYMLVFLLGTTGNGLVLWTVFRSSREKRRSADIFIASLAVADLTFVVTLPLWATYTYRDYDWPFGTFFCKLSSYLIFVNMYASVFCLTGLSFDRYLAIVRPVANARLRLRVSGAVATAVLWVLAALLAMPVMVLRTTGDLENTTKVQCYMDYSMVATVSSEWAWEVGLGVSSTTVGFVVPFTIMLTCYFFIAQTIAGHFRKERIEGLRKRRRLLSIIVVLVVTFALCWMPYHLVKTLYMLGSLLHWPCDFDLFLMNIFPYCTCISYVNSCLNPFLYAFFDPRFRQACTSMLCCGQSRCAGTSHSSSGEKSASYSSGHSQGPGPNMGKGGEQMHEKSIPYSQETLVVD
From the text: Characterization of the Apelin Agonist Activity of the Compounds
1:39-47, the contents of which are hereby incorporated by reference in its entirety. Using the methods described in Giddings et al. and Apelin-13 as a positive control.

Compound	EC50 [nM]
O=C(C[C@H](CN1CCCC(F)(F)C1)NC(=O)c1cc(-c2ccccc2C(F)(F)F)n(C2CCCC2)n1)NC1CCC1 [compound 524, (3R)-N-cyclobutyl-3-({1-cyclopentyl-5-[2-(trifluoromethyl)phenyl]-1H-pyrazol-3-yl]formamido)-4-(3,3-difluoropiperidin-1-yl)butanamide]	910

same assay, conditions: in vitro apelin agonist activity, methods of Giddings et al., Apelin-13 as positive control; read-out: EC50 (nM) Ave

Compound	EC50 [nM]
CCN(C(=O)c1cc(-c2ccccc2OC(F)(F)F)n(C2CCCC2)n1)[C@@H](CCN1CCCCC1)CC(=O)NC1CCC1 [compound 344, (3S)-N-cyclobutyl-3-(1-{1-cyclopentyl-5-[2-(trifluoromethoxy)phenyl]-1H-pyrazol-3-yl}-N-ethylformamido)-5-(piperidin-1-yl)pentanamide]	2370
COc1cccc(OC)c1-c1cc(C(=O)N[C@@H](CCN2CCCCC2)CC(=O)N(C)C2CCC2)nn1C1CCCC1 [compound 331, (3S)-N-cyclobutyl-3-{[1-cyclopentyl-5-(2,6-dimethoxyphenyl)-1H-pyrazol-3-yl]formamido}-N-methyl-5-(piperidin-1-yl)pentanamide]	353
COc1cccc(OC)c1-c1cc(C(=O)N[C@H](CC(=O)O)Cc2ccccc2)nn1CC(C)C [compound 297, (3S)-3-{[5-(2,6-dimethoxyphenyl)-1-(2-methylpropyl)-1H-pyrazol-3-yl]formamido}-4-phenylbutanoic acid]	> 10000
COc1cccc(OC)c1-c1cc(C(=O)N[C@@H](CC2CCC2)C(=O)O)nn1C1CCCC1 [compound 386, (2S)-3-cyclobutyl-2-{[1-cyclopentyl-5-(2,6-dimethoxyphenyl)-1H-pyrazol-3-yl]formamido}propanoic acid]	6170
CCN(CC)CC[C@@H](CC(=O)NC1CCC1)NC(=O)c1cc(-c2c(OC)cccc2OC)n(C2CCCC2)n1 [compound 314, (3S)-N-cyclobutyl-3-{[1-cyclopentyl-5-(2,6-dimethoxyphenyl)-1H-pyrazol-3-yl]formamido}-5-(diethylamino)pentanamide]	1840
COc1cccc(OC)c1-c1cc(C(=O)N[C@@H](CCc2ccccc2)CC(=O)NCc2nccs2)nn1C1CCCC1 [compound 382, (3S)-3-{[1-cyclopentyl-5-(2,6-dimethoxyphenyl)-1H-pyrazol-3-yl]formamido}-5-phenyl-N-(1,3-thiazol-2-ylmethyl)pentanamide]	3440
Cc1noc(C)c1-c1cc(C(=O)N[C@@H](CCN2CCCCC2)CC(=O)NC2CCC2)nn1C1CCCC1 [compound 369, (3S)-N-cyclobu tyl-3-{[1-cyclopentyl-5-(dimethyl-1,2-oxazol-4-yl)-1H-pyrazol-3-yl]formamido}-5-(piperidin-1-yl)pentanamide]	> 10000
COc1cccc(OC)c1-c1cc(C(=O)N[C@@H](CCN2CCCCC2)CC(=O)N(C)c2nccs2)nn1C1CCCC1 [compound 351, (3S)-3-{[1-cyclopentyl-5-(2,6-dimethoxyphenyl)-1H-pyrazol-3-yl]formamido}-N-methyl-5-(piperidin-1-yl)-N-(1,3-thiazol-2-yl)pentanamide]	73
COc1cccc(OC)c1-c1cc(C(=O)N[C@@H](CCN2C3CCC2CC3)CC(=O)OC(C)(C)C)nn1C1CCCC1 [compound 320, tert-butyl (3S)-5-{7-azabicyclo[2.2.]heptan-7-yl}-3-{[1-cyclopentyl-5-(2,6-dimethoxyphenyl)-1H-pyrazol-3-yl]formamido}pentanoate]	> 10000
COc1ccccc1-c1cc(C(=O)N[C@@H](CCN2CCCCC2)CC(=O)NC2CCC2)nn1C1CCCC1 [compound 361, (3S)-N-cyclobutyl-3-{[1-cyclopentyl-5-(2-methoxyphenyl)-1H-pyrazol-3-yl]formamido}-5-(piperidin-1-yl)pentanamide]	234
COc1cccc(OC)c1-c1cc(C(=O)N[C@H](CC(=O)NC2CCC2)Cc2ccccc2)nn1CC(C)C [compound 321, (3S)-N-cyclobutyl-3-{[5-(2,6-dimethoxyphenyl)-1-(2-methylpropyl)-1H-pyrazol-3-yl]formamido}-4-phenylbutanamide]	114

The next lines start with the values.

EC50 [nM]	Compound
103	CC(F)(F)c1ccccc1-c1cc(C(=O)N[C@@H](CCN2C[C@@H](F)[C@@H](F)C2)CC(=O)O)nn1C1CCCC1 [compound 598, (3S)-3-({1-cyclopentyl-5-[2-(1,1-difluoroethyl)phenyl]-1H-pyrazol-3-yl}formamido)-5-[cis-3,4-difluoropyrrolidin-1-yl]pentanoic acid]
261	Cc1nnc(C[C@H](CCN2CCCC(F)(F)C2)NC(=O)c2cc(-c3ccccc3Cl)n(C3CCCC3)n2)[nH]1 [compound 458, 5-(2-chlorophenyl)-1-cyclopentyl-N-[(2S)-4-(3,3-difluoropiperidin-1-yl)-1-(5-methyl-4H-1,2,4-triazol-3-yl)butan-2-yl]-1H-pyrazole-3-carboxamide]
32	O=C(C[C@H](CCN1CC(F)(F)C1)NC(=O)c1cc(-c2ccccc2C(F)(F)F)n(C2CCCC2)n1)NC1CCC1 [compound 535, (3S)-N-cyclobutyl-3-({1-cyclopentyl-5-[2-(trifluoromethyl)phenyl]-1H-pyrazol-3-yl}formamido)-5-(3,3-difluoroazetidin-1-yl)pentanamide]
231	CC1(C)CC(F)(F)CN1CC[C@@H](CC(=O)O)NC(=O)c1cc(-c2ccccc2C(F)(F)F)n(C2CCCC2)n1 [compound 612, (3S)-3-({1-cyclopentyl-5-[2-(trifluoromethyl)phenyl]-1H-pyrazol-3-yl}formamido)-5-(4,4-difluoro-2,2-dimethylpyrrolidin-1-yl)pentanoic acid]
264	CCc1cc(F)ccc1-c1cc(C(=O)N[C@@H](CCN2CCCCC2)CC(=O)NC2CCC2)nn1C1CCCC1 [compound 399, (3S)-N-cyclobutyl-3-{[1-cyclopentyl-5-(2-ethyl-4-fluorophenyl)-1H-pyrazol-3-yl]formamido}-5-(piperidin-1-yl)pentanamide]
> 10000	COc1cccc(OC)c1-c1cc(C(=O)N[C@@H](CCc2ccccc2)C(=O)Nc2nccs2)nn1C1CCCC1 [compound 396, (2S)-2-{[1-cyclopentyl-5-(2,6-dimethoxyphenyl)-1H-pyrazol-3-yl]formamido}-4-phenyl-N-(1,3-thiazol-2-yl)butanamide]
114	O=C(C[C@H](COc1ccc(F)cc1)NC(=O)c1cc(-c2ccccc2C(F)(F)F)n(C2CCCC2)n1)NC1CCC1 [compound 546, (3R)-N-cyclobutyl-3-({1-cyclopentyl-5-[2-(trifluoromethyl)phenyl]-1H-pyrazol-3-yl}formamido)-4-(4-fluorophenoxy)butanamide]
1340	O=C(O)C[C@H](CCN1CCCC[C@@H]1C(F)(F)F)NC(=O)c1cc(-c2ccccc2C(F)(F)F)n(C2CCCC2)n1 [compound 488, (3S)-3-({1-cyclopentyl-5-[2-(trifluoromethyl)phenyl]-1H-pyrazol-3-yl}formamido)-5-[(2R)-2-(trifluoromethyl)piperidin-1-yl]pentanoic acid]
4250	COCCN(C)C(=O)[C@H](COc1ccccc1)NC(=O)c1cc(-c2ccccc2C(F)(F)F)n(C2CCCC2)n1 [compound 570, (2S)-2-({1-cyclopentyl-5-[2-(trifluoromethyl)phenyl]-1H-pyrazol-3-yl}formamido)-N-(2-methoxyethyl)-N-methyl-3-phenoxypropanamide]
6340	COc1cccc(OC)c1-c1cc(C(=O)N[C@H](CC#N)CCc2ccccc2)nn1C1CCCC1 [compound 391, N-[(2S)-1-cyano-4-phenylbutan-2-yl]-1-cyclopentyl-5-(2,6-dimethoxyphenyl)-1H-pyrazole-3-carboxamide]
5180	COc1cccc(OC)c1-c1cc(C(=O)N[C@@H](CCc2ccccc2)CC(=O)NCc2nnn[nH]2)nn1C1CCCC1 [compound 383, (3S)-3-{[1-cyclopentyl-5-(2,6-dimethoxyphenyl)-1H-pyrazol-3-yl]formamido}-5-phenyl-N-(1H-1,2,3,4-tetrazol-5-ylmethyl)pentanamide]
17.5	O=C(C[C@H](CCN1CCC(F)(F)CC1)NC(=O)c1cc(-c2ccccc2C(F)(F)F)n(C2CCCC2)n1)Nc1nccs1 [compound 430, (3S)-3-({1-cyclopentyl-5-[2-(trifluoromethyl)phenyl]-1H-pyrazol-3-yl}formamido)-5-(4,4-difluoropiperidin-1-yl)-N-(1,3-thiazol-2-yl)pentanamide]
24	O=C(N[C@@H](CCN1C[C@H](F)[C@@H](F)C1)Cc1nnn[nH]1)c1cc(-c2ccccc2C(F)(F)F)n(C2CCCC2)n1 [compound 630]
1870	O=C(O)C[C@@H](CCN1CCCC(F)(F)C1)NC(=O)c1cc(-c2ccccc2C(F)(F)F)n(C2CCCC2)n1 [compound 579, (3R)-3-({1-cyclopentyl-5-[2-(trifluoromethyl)phenyl]-1H-pyrazol-3-yl}formamido)-5-(3,3-difluoropiperidin-1-yl)pentanoic acid]
133	O=C(C[C@H](CCN1CCCC(F)(F)C1)NC(=O)c1cc(-c2cccnc2Cl)n(C2CCCC2)n1)NC1CCC1 [compound 469, (3S)-3-{[5-(2-chloropyridin-3-yl)-1-cyclopentyl-1H-pyrazol-3-yl]formamido}-N-cyclobutyl-5-(3,3-difluoropiperidin-1-yl)pentanamide]
